The conditions of data set [1]: cited from earlier work; for polymorph stability: as stated in WO2005/007081.
The conditions of data set [2]: crystalline polymorph, as stated in WO2005/007081; cited from earlier work.
Data set [3] in a line: relative stability / transformation of the polymorph forms. As to conditions: on the basis of the DSC curve; transforms in the DSC tube into the more stable, higher melting form. The class given is physicochemical. From the text:
(§1) The two polymorph forms (forms A and B) of the crystalline treprostinil diethanolamine salt were first described in patent specification WO2005/007081. The polymorph forms were characterized by their melting point, X-ray powder diffraction pattern, DSC (Differential Scanning calorimetry) and TGA (Thermogravimetric Analysis) curves, and by their hygroscopic character.
Publication Organic Process & Development, 2009, 13, 242-249. (Crystallization Process Development for Stable Polymorph of Treprostinil; Batra, H.; Penmasta, R.; Phares, K.; Staszewski, J.; Tuladhar, S. M; D. A. Walsh, United Therapeutics) describes in detail the physical characteristics of the two polymorphs and the experiments carried out for their preparation.
(§2) Polymorph form B of treprostinil diethanolamine salt was obtained also if the salt was dissolved in methanol, the solution was set to opalescent with methyl tertiary-butyl ether at 45° C. and then crystallisation was completed at room temperature (yield 87%) (example 16.). […] This form is named polymorph form C (example 17.).
DSC: • Instrument: METTLER TOLEDO DSC1 STARe System, Stare basic V9.30 • Method: Starting temperature: 30° C. • Final temperature: 150° C. • Heating rate: 5° C./min • Amount: 2-6 mg, perforated aluminum crucible (40 μl)

Data set [4] can be described thus: hygroscopic character of the polymorph forms. The class given is physicochemical. To be noted: crystals from methanol-methyl tertiary-butyl ether at −70° C. (example 17). Here is the method: as §1, §2

Counter-ions that a name gives are not always drawn. Like-named read-outs stand apart in the source and are kept apart here.

The values that follow come from US11319274B2, “Process for the preparation of polymorph form B of treprostinil diethanolamine salt” (CHINOIN GYÓGYSZER ÉS VEGYÉSZETI TERMÉKEK GYÁRA ZRT., priority 2018, dated 2022).

Consider `CCCCC[C@H](O)CC[C@@H]1[C@H]2Cc3cccc(OCC(=O)O)c3C[C@H]2C[C@H]1O` [form A, (1R,2R,3aS,9aS)-2-[2-Hydroxy-1-[3(S)-hydroxyoctyl]-2,3,3a,4,9,9a-hexahydro-1H-benz[f]inden-5-yloxy] acetic acid diethanolamine salt], for which the transformation on standing result in data set [1] (Organic Process & Development, 2009, 13, 242-249) is given as “on standing transforms into the thermodynamically more stable form B”. Moreover, in data set [1], the polymorph stability entry is on record as “metastable”. Further, the transformation in suspension result in data set [1] (suspension in organic solvents (1,4-dioxane, isopropanol, tetrahydrofuran, toluene), agitation at different temperatures, WO2005/007081) was “transforms into form B on agitation”. Further, the hygroscopic character result in data set [2] was “hygroscopic”.

For `CCCCC[C@H](O)CC[C@@H]1[C@H]2Cc3cccc(OCC(=O)O)c3C[C@H]2C[C@H]1O` [polymorph form C, (1R,2R,3aS,9aS)-2-[2-Hydroxy-1-[3(S)-hydroxyoctyl]-2,3,3a,4,9,9a-hexahydro-1H-benz[f]inden-5-yloxy] acetic acid diethanolamine salt], the polymorph stability entry in data set [3] is “less stable form”. Besides, the hygroscopic character entry in data set [4] is listed as “highly hygroscopic”.

Turning to `CCCCC[C@H](O)CC[C@@H]1[C@H]2Cc3cccc(OCC(=O)O)c3C[C@H]2C[C@H]1O` [form B, (1R,2R,3aS,9aS)-2-[2-Hydroxy-1-[3(S)-hydroxyoctyl]-2,3,3a,4,9,9a-hexahydro-1H-benz[f]inden-5-yloxy] acetic acid diethanolamine salt], in data set [1], the polymorph stability entry was “more stable”. Also, the hygroscopic character result in data set [2] is recorded as “much less hygroscopic”.
